Measured values reported in ChEMBL document CHEMBL1127264, “Substituted 1,3-benzodioxole & 1,3-benzodithiole -2-carboxylates and their tetrazole analogs with potent binding affinity to the angiotensin II AT1 receptor” (Bioorg Med Chem Lett, 1994).

What was measured:
[1] = biological target: T1, Type-2 angiotensin II receptor (Rattus norvegicus, UniProt P35351); experiment: Binding affinity to AT2 receptor in rat midbrain binding assay; assay type: tissue-based
T1 sequence (P35351 whole entry): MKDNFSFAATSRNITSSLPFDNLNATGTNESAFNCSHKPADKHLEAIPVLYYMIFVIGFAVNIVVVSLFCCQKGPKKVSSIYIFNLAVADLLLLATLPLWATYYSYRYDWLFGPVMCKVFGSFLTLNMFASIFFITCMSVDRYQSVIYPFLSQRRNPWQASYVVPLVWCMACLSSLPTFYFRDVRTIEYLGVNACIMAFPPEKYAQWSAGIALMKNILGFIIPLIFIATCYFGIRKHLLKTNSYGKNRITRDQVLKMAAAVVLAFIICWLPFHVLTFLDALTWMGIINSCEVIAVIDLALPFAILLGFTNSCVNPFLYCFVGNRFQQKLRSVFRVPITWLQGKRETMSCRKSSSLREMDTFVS

[2] = biological target: T2, Type-1 angiotensin II receptor (Oryctolagus cuniculus, UniProt P34976); experiment: Binding affinity to Angiotensin II receptor, type 1 in rabbit aorta binding assay; assay type: tissue-based
T2 sequence (P34976 whole entry): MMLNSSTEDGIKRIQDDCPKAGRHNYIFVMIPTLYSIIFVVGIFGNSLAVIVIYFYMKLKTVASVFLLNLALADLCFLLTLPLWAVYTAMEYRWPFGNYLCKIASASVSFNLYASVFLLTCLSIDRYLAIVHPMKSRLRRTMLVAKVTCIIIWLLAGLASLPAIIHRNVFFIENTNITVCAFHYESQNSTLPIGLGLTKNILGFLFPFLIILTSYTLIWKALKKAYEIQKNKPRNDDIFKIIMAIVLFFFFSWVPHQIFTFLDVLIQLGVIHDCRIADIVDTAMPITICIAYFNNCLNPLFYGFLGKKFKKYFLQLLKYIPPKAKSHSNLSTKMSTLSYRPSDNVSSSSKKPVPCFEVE

Row | IC50 [1] [µM] | IC50 [2] [nM] | SMILES
1 | 16 | 45 | CCCc1nc2c(C)ccnc2n1Cc1ccc2c(c1)OC(c1ccccc1)(c1nn[nH]n1)O2 (stereo not drawn)
2 | 2.8 | 56 | CCCc1nc2c(C)ccnc2n1Cc1ccc2c(c1)OC(C(=O)O)(c1ccccc1)O2 (stereo not drawn)
3 | 8.1 | 34 | CCCc1nc2c(C)ccnc2n1Cc1ccc2c(c1)SC(C(=O)O)(c1ccccc1)S2 (stereo not drawn)
4 | 15 | 35 | CCCc1nc2c(C)ccnc2n1Cc1ccc2c(c1)SC(c1ccccc1)(c1nn[nH]n1)S2 (stereo not drawn)
